Series [1] in a line: Molar enthalpy of transition or fusion. Conditions: DSC.
The conditions of series [2]: DTA.

Structures are written as SMILES. Numbers after ± are expanded uncertainties.

Regarding `CCCCCCCCCCCCCCCCCCCCCCCCCCCCCCCCCCCCCCCC` [tetracontane], the “Molar enthalpy of transition or fusion” value in series [1] (Crystal 1) worked out at 34.4 ± 0.717 kcal/mol; in series [1] (Crystal 2), 2.05 ± 0.0574 kcal/mol; in series [1] (Crystal 3), 0.601 ± 0.0311 kcal/mol. Also, the Triple point temperature in series [2] (Crystal 1) came out at 354.6 ± 0.1 K; in series [2] (Crystal 2), 347.7 ± 0.1 K; in series [2] (Crystal 3), 345 ± 0.1 K.
As to `CCCCCCCCCCCCCCCCCCCCCCCCCCCCCCCCCCCC` [hexatriacontane], the “Molar enthalpy of transition or fusion” value in series [1] (Crystal 1) was 24.5 ± 0.502 kcal/mol; in series [1] (Crystal 2), 6.82 ± 0.153 kcal/mol; in series [1] (Crystal 3) it was 3.59 ± 0.0884 kcal/mol; in series [1] (Crystal 4) it was 0.112 ± 0.0208 kcal/mol. For the same compound, the Triple point temperature is 349.2 ± 0.1 K in series [2] (Crystal 1), 347.1 ± 0.1 K in series [2] (Crystal 2), 346.8 ± 0.1 K in series [2] (Crystal 3) and 343.6 ± 0.1 K in series [2] (Crystal 4).
As to `CCCCCCCCCCCCCCCCCCCCCCCCCCCCCCCCCCCCCCCCCC` [dotetracontane], the “Molar enthalpy of transition or fusion” value in series [1] (Crystal 1) is 39.7 ± 0.813 kcal/mol; in series [1] (Crystal 2) it was 2.02 ± 0.0574 kcal/mol; in series [1] (Crystal 3), 0.504 ± 0.0287 kcal/mol. In addition, the Triple point temperature is on record as 357.3 ± 0.1 K in series [2] (Crystal 1), 348.6 ± 0.1 K in series [2] (Crystal 2) and 344.6 ± 0.1 K in series [2] (Crystal 3).
For the compound `CCCCCCCCCCCCCCCCCCCCCCCCCCCCCCCCCC` [tetratriacontane], the results for the “Molar enthalpy of transition or fusion” value in series [1] (Crystal 1), in series [1] (Crystal 2) and in series [1] (Crystal 3) were 22.9 ± 0.478 kcal/mol, 11.2 ± 0.239 kcal/mol and 0.0968 ± 0.0203 kcal/mol, respectively. Moreover, the values for the Triple point temperature in series [2] (Crystal 1), in series [2] (Crystal 2) and in series [2] (Crystal 3) were 346.1 ± 0.1 K, 343.5 ± 0.1 K and 342.8 ± 0.1 K, respectively.

The values are drawn from the NIST ThermoML archive (doi:10.1016/j.tca.2006.06.022).
